Source: patent US11014896B2, “TRPA1 and TRPV4 inhibitors and methods of using the same for organ-specific inflammation and itch” (Duke University, priority 2014, dated 2021)
“Also recorded” adds a separate entry of the source.

How the values were obtained:
human TRPV2 = molecular target: T1, human TRPV2 (Homo sapiens, UniProt Q9Y5S1); test: Ca2+ signal in N2a cells transfected with human TRPV2; assay type: cell-based; conditions: stimulation with hypotonicity (260 mosmol/L)
T1 construct: expressed in transfected cells; host or cells: N2a cells
T1 sequence (Q9Y5S1 1-764): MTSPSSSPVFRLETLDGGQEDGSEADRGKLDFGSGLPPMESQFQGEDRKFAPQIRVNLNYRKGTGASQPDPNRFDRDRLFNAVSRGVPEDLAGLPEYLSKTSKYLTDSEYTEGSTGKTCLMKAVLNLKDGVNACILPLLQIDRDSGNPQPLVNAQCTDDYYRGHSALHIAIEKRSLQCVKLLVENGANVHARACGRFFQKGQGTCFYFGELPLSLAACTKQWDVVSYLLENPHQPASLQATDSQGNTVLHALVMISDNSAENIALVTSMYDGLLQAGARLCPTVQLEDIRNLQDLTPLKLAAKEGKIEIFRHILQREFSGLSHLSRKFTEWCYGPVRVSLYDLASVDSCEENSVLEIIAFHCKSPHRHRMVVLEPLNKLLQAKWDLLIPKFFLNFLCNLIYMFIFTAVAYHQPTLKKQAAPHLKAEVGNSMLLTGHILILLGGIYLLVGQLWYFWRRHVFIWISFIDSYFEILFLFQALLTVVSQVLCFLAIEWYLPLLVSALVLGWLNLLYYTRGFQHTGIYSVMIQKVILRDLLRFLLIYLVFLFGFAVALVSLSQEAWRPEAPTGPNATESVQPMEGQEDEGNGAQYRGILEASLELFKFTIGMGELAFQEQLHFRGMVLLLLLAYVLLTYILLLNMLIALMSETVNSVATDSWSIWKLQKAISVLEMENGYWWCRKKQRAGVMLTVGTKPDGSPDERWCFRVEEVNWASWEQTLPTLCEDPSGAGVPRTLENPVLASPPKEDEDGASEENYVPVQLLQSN
Protocol: Compounds were tested for their effect on TRPV1, TRPV2, and TRPV3. Methods were similar to those described in Example 15. Briefly, N2a cells were transfected with human TRPV1, TRPV2, or TRPV3. eGFP-transfection was used as control. For specific stimulation of TRPV1, 5 μM capsaicin was used. For stimulation of TRPV2, hypotonicity (260 mosmol/L) was used, based on previous reports of TRPV2 being osmotically responsive. N2a cells were not responsive to hypotonicity, and neither were control-transfected cells. For TRPV3-expressing cells, camphor (20% of a commercially available stock solution) was used. […] Stimulation and control protocols were applied as for TRPA1-expressing N2a cells as detailed above in Example 15.

TRPV4 = molecular target: T2, TRPV4 (Mus musculus, UniProt Q9EPK8); test: GSK101-evoked Ca++ transient in 1° MK; assay type: cell-based; conditions: 5 nM GSK101; GSK205 20 μM
T2 construct: endogenous in cells; host or cells: primary mouse epidermal keratinocytes (1° MK), wild type
T2 sequence (Q9EPK8 whole entry): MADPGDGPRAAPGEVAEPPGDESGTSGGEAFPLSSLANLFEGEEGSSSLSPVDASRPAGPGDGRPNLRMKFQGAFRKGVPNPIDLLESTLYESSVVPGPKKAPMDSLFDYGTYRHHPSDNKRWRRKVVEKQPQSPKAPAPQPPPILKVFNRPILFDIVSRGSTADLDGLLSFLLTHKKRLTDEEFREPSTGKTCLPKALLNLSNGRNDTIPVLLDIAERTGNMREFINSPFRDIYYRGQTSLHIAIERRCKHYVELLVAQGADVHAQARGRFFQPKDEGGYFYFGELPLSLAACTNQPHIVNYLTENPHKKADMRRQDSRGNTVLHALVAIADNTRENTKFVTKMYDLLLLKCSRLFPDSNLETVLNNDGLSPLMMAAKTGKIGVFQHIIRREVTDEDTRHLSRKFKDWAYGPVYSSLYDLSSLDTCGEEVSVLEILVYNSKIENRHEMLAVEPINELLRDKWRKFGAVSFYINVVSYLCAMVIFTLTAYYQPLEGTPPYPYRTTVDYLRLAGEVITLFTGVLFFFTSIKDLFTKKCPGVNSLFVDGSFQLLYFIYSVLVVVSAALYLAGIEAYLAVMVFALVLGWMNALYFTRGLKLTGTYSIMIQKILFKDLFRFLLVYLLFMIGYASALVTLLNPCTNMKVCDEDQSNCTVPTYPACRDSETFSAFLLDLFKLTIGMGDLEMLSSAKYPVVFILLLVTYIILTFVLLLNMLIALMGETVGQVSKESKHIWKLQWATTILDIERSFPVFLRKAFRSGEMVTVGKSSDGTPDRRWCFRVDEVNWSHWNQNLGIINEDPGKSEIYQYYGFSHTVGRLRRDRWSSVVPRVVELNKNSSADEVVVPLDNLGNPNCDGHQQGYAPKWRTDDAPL
Protocol: Ca++ imaging of mouse 1° MK in response to chemical activation of TRPV4 was conducted after loading with 2 μM fura2-AM, following a ratiometric Ca2+ imaging protocol with 340/380 nm […] for dual excitation. Ratios of emissions were acquired at 0.5 Hz. ΔR/R0 was determined as the fraction of the increase of a given ratio over baseline ratio, divided by baseline ratio. For stimulation of cells with UVB, where fura-2 was not suitable because of the proximity of stimulation with 340/380 nm and 295 nm, 2 μM fluo4-AM was used instead. Ca++ imaging was carried out at 488 nm excitation, acquisition of emissions at 0.5 Hz, expressed as ΔF/F0. In the custom-built UV optical system, UV LEDs were capped with a ball lens, a transparent optical window in the shape of a hemispherical lens (FIG. 2B). The LED output optical beam focused at 15-20 mm from the lens, with a spot diameter of approximately 1.5-2.0 mm (FIG. 2C). […] The thermal equilibration stage was set for physiological temperature. We confirmed the non-thermal nature of UVB stimulation using the customized 295 nm LED device in a dedicated experiment (FIG. 2D), thus confirming the specific modality of stimulation as UVB.

IL-6 = test: Keratinocyte IL-6 expression in UVB-exposed footpad after topical treatment; assay type: in vivo, mouse; conditions: 5 mM GSK205 topical
Protocol: GSK205 topical treatment: A viscous solution of 68% EtOH/5% glycerol plus 1 mM or 5 mM GSK205 (none for control) was applied to hindpaws by rubbing in 20 μL, applied at time-points 1 hour and again 10 min before UV exposure.
Routine procedures were followed as described previously (Chen et al., 2009). Mice were perfused transcardially with 30 mL PBS, followed by 30 mL 4% paraformaldehyde. Tissues, including the L5 DRGs (bilateral), and footpad preparations, were dissected and post-fixed in 4% paraformaldehyde. Tissue blocks were further cryoprotected in 30% sucrose in PBS for 24-48 hours. For mouse TRPV4, keratin-specific antibodies, phospho-ERK, IL-6, IL-1β, CXCL5 and caspase-1, tissue was prepared as frozen blocks and subsequently sectioned on a cryostat. For CD68, CD15 (neutrophil elastase) and CD3, mouse skin was prepared by 2% PFA perfusion. […]

CN(CCc1ccc(Nc2nc(-c3ccccc3)cs2)cc1)Cc1ccccc1 [Compound 16-8]
Ca2+ transience on TRPV2 stimulation (human TRPV2): not affected

CN(CCc1ccc(Nc2nc(-c3cccnc3)cs2)cc1)Cc1ccccc1 [GSK205]
GSK101-evoked Ca++ transient (TRPV4): eliminated; also recorded: completely blocked | keratinocyte expression of IL-6 in UVB-exposed footpad (IL-6): Comparably significant blocks; also recorded: attenuates keratinocyte expression of IL-6
